Data published in US8097440B1, “Engineered microorganisms capable of producing target compounds under anaerobic conditions” (Gevo, Inc., priority 2008, dated 2012).
Where a chain is given by its changes, count along the chain named.

How the values were obtained:
[1] = molecular target: T1, E. coli KARI Ec_IlvC variant Ec_IlvC^B8A71S-his6 (Q110V, S78D, A71S), SEQ ID NO: 29 (Escherichia coli, UniProt P05793, A71S/Q110V/S78D); experiment: KARI cuvette assay, purified Ec_IlvC^B8A71S-his6; assay type: biochemical
T1 sequence (P05793 with tags, fused parts or gaps A71S/S78D/Q110V): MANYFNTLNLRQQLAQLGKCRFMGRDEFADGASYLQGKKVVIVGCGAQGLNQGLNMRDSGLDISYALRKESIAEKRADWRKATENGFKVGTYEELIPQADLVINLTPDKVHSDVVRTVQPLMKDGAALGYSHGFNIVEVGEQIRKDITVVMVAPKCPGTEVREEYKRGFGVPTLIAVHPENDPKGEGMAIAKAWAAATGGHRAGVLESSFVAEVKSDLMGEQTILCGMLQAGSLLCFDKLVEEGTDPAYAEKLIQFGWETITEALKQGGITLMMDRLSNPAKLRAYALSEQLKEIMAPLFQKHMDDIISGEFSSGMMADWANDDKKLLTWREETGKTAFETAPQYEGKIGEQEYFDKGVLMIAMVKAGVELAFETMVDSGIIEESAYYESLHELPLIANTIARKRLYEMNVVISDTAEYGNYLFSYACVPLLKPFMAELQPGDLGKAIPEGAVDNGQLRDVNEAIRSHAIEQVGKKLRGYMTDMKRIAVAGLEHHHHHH
Protocol: (§1) KARI cuvette assay: KARI activity was assayed kinetically by monitoring the decrease in NAD(P)H concentration by measuring the absorbance at 340 nm. A reaction buffer was prepared containing 250 mM potassium phosphate pH 7, 1 mM DTT and 10 mM MgCl2. Cell pellets were resuspended (0.25 g wet weight/mL buffer) in 250 mM potassium phosphate (KPi) buffer containing 1 mM DTT and 10 mM MgCl2. The resuspended cells were lysed by sonication for 1 min with a 50% duty cycle and pelleted at 11000×g and 4° C. for 15 min. A reaction mixture consisting of 910 μl reaction buffer, 50 μl acetolactate, and 20 μl lysate was prepared in a cuvette. The reaction was initiated by addition of 20 μL of 10 mM NAD(P)H. A substrate free control was conducted using reaction buffer without the addition of acetolactate.
(§2) Purification of KARI: Cell pellets used for purification were resuspended in purification buffer A (20 mM Tris, 20 mM imidazol, 100 mM NaCl, 10 mM MgCl2, pH 7.4). KARI was purified by IMAC (Immobilized metal affinity chromatography) over a 1 ml Histrap High Performance (histrap HP) column pre-charged with Nickel (GE Healthcare) using an Akta FPLC system (GE Healthcare). […]

[2] = molecular target: T2, E. coli KARI Ec_IlvC variant Ec_IlvC^Q110V-his6 (Q110V), SEQ ID NO: 23 (Escherichia coli, UniProt P05793, Q110V); experiment: KARI cuvette assay, purified Ec_IlvC^Q110V-his6; assay type: biochemical; conditions: relative to Ec_IlvC^his6 with NADPH
T2 sequence (P05793 with tags, fused parts or gaps Q110V): T1 sequence (P05793 with tags, fused parts or gaps A71S/S78D/Q110V) with S71A, D78S
Protocol: as §1, §2

SMILES: NC(=O)C1=CN([C@@H]2O[C@H](COP(=O)(O)OP(=O)(O)OC[C@H]3O[C@@H](n4cnc5c(N)ncnc54)[C@H](O)[C@@H]3O)[C@@H](O)[C@H]2O)C=CC1 [NADH, nicotinamide adenine dinucleotide]
- kcat/KM ([1]; purified, acetolactate as substrate): 38330 M⁻¹ s⁻¹
- (kcat/KM with NADH)/(kcat/KM of Ec_IlvC^his6 with NADPH) ([1]; relative to Ec_IlvC^his6 with NADPH): 44%
- (kcat/KM with NADH)/(kcat/KM of Ec_IlvC^his6 with NADPH) [2]: 28%
